Measured values from patent publication EP1243271A1, “NASAL DROPS CONTAINING FUSED PYRIDAZINE DERIVATIVES” (Takeda Chemical Industries, Ltd., priority 1999, dated 2001).

Legend:
Male Hartley guinea pigs = assay: Effect on histamine-induced increases in microvascular permeability in skin in guinea pigs; assay type: in vivo; details: Cavia porcellus; 3 mg/kg oral administration 1 hour before histamine; guinea pig skin
Procedure: Male Hartley guinea pigs weighing about 500 g were used. After the dorsal hair was shaved under ether anesthesia, 1 ml of a 2.5% pontamine sky blue solution was injected intravenously, and then 0.1 ml of histamine at 3 µg/ml was injected intradermally into 2 sites (left and right) in the back. Thirty minutes after the injection of histamine, animals were fainted by knocking in the head, decapitated and killed by bleeding, after which the skin of the back was removed. The long and short diameters (mm) of each blue spot were measured and multiplied; the mean product was taken as the vascular permeability index. Test compounds were suspended in a 5% gum arabic solution and orally administered in a volume of 0.2 ml/100 g body weight at 1 hour before histamine administration. Animals in the control group received the same volume of a 5% gum arabic solution. Equation 1 Inhibition (%) of histamine-induced increases in microvascular permeability in skin = 100 × (1-vascular permeability index in the presence of drug/vascular permeability index in control group) [formula]

histamine H1 receptor = biological target: T1, histamine H1 receptor (Cavia porcellus, UniProt P31389); assay: Penetrability into the brain: ex vivo binding test with tritium-labeled pyrilamine in brain and lung membrane fractions; parameters: species or system guinea pigs
T1 construct: The cerebral cortex and lung tissues were removed and homogenized in phosphate buffer solution; from tissue; host or cells: cerebral cortex and lung crude membrane fractions of male Hartley guinea pigs
T1 sequence (P31389 whole entry): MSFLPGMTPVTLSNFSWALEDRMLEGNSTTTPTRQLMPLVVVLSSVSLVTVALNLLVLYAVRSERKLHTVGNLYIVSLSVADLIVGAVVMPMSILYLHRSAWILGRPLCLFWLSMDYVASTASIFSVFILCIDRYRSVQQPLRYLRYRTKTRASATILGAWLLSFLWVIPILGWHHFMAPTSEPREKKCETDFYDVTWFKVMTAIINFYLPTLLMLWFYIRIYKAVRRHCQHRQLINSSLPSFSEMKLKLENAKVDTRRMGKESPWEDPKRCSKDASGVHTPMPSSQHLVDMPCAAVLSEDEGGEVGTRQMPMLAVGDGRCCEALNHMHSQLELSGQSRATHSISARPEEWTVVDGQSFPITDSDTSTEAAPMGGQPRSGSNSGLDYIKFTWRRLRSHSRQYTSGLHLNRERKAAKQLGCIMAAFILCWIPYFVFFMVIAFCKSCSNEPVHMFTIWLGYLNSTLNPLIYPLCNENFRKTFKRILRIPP
Procedure: The compound of Reference Example B135 was orally administered (10 or 100 mg/kg) to male Hartley guinea pigs and, one hour later, the guinea pigs were slaughtered by decapitation. The cerebral cortex and lung tissues were removed and homogenized in phosphate buffer solution, followed by centrifugation at 4°C and 1000×g for 10 minutes. The supernatant was further centrifuged at 5000×g for 10 minutes to give crude membrane fractions. The membrane fractions were suspended in a buffer and, after adjusting the protein concentration to 1.0 mg/mL, subjected to binding test with tritium-labeled pyrilamine (2 nM). The inhibitory action on ex vivo binding test measured specific binding of pyrilamine in the brain and lung membrane fractions was calculated and used as an index of selectivity to peripheral histamine H1 receptor in the body upon oral administration of the agent.

guinea pig = assay: Effect on intranasal pressure and pituita (nasal) secretion after histamine aerosol, nasal administration; assay type: in vivo
Procedure: Animals were anesthetized with pentobarbital sodium (30 mg/kg, i.p.), and the compound of Reference Example B135 and solvent (0.1% sodium dihydrogenphosphate + 0.1% Tween 80) were administered into the both nasal cavities of guinea pig in 20 µL. The animals underwent the following test in about 0.5 hour.
The animals under anesthesia was held in the supine position. The neck was opened by median incision to expose the air tube. For maintenance of respiration, a polyethylene tube was inserted down into the air tube. Another polyethylene tube was inserted from the air tube incision into the rhinopharynx, and connected to a respirator via a silicon tube, through which the air was supplied into the nasal cavity at a volume of 4 mL/stroke and a frequency of 70 strokes/min. To prevent the air leak into the oral cavity, incisive canal was closed with Aron alfa A (trademark, Sankyo, Tokyo). The intranasal pressure was measured with a transducer connected to a side branch of the tube inserted into the nasal cavity. Histamine 1000 µg/mL solution was aerosolized using an ultrasonic nebulizer provided between the respirator and the tube in the nasal cavity, and the air was supplied into the nasal cavity for 3 minutes. After the histamine air supply, the intranasal pressure was depicted on an oscillograph for 15 minutes and the area under the curve was determined.
The pituita flowed out from the nasal cavity or pooled in the nasal cavity during the 15 minutes after histamine air supply was wiped with a cotton swab, which was weighed on an electronic weighing machine.
Where necessary, aerosolized physiological saline as a negative control was supplied into the nasal cavity, and the intranasal pressure and nasal secretion were measured.

[1] = 0.1% solution, nasal, 20 µL, histamine 1000 µg/mL aerosol
[2] = 1.0% solution, nasal, 20 µL, histamine 1000 µg/mL aerosol

**Q.** `CC(C)(C(=O)O)c1cn2nc(NCCCN3CCC(OC(c4ccccc4)c4ccccc4)CC3)ccc2n1.O.O` [Reference Example B135, 2-[6-[3-[4-(diphenylmethoxy)piperidino]-propylamino]imidazo[1,2-b]pyridazin-2-yl]-2-methylpropionic acid dihydrate] was tested. Which inhibition in vivo at 3 mg/kg (Male Hartley guinea pigs) did it give?
**A.** The inhibition in vivo at 3 mg/kg was 91%.

**Q.** What about the “penetrability into the brain” value (histamine H1 receptor; conclusion from Tables 5 and 6) of the same molecule?
**A.** Its value is “poor penetrability into the brain”.

**Q.** And the “percent inhibition of specific binding of membrane fraction pyrilamine in brain” value (histamine H1 receptor; oral administration of 10 mg/kg, one hour later, brain (cerebral cortex))?
**A.** Its value is -2.9%.

**Q.** What about the “percent inhibition of specific binding of pyrilamine in lung membrane fraction” value (histamine H1 receptor; oral administration of 10 mg/kg, one hour later) of the same molecule?
**A.** The value was 95%.

**Q.** And the “percent inhibition of specific binding of pyrilamine in brain membrane fraction” value (histamine H1 receptor; oral administration of 100 mg/kg, one hour later, brain (cerebral cortex))?
**A.** Its value is 44%.

**Q.** And the “percent inhibition of specific binding of pyrilamine in lung membrane fraction” value (histamine H1 receptor; oral administration of 100 mg/kg, one hour later)?
**A.** Its value is 95%.

**Q.** And the “percent inhibition of increase in intranasal pressure by nasal administration of 0.1% solution” value (guinea pig; [1])?
**A.** The value was 70%.

**Q.** What about the “percent inhibition of nasal secretion by nasal administration of 0.1% solution” value (guinea pig; [1]) of the same molecule?
**A.** Its value is 72%.

**Q.** What about the “percent inhibition of increase in intranasal pressure by nasal administration of 1.0% solution” value (guinea pig; [2]) of the same molecule?
**A.** Its value is 62%.

**Q.** And the “percent inhibition of nasal secretion by nasal administration of 1.0% solution” value (guinea pig; [2])?
**A.** The value was 78%.

**Q.** And the “increase in the intranasal pressure and nasal secretion” value (guinea pig; conclusion from Tables 3 and 4)?
**A.** Its value is “reduced increase in the intranasal pressure and nasal secretion”.
